One experiment deals with T1, human M4 receptor (Homo sapiens, UniProt P08173).
T1 construct: expressed in transfected cells; host or cells: CHO-K1 cells (membrane preparation)
T1 sequence (P08173 1-479): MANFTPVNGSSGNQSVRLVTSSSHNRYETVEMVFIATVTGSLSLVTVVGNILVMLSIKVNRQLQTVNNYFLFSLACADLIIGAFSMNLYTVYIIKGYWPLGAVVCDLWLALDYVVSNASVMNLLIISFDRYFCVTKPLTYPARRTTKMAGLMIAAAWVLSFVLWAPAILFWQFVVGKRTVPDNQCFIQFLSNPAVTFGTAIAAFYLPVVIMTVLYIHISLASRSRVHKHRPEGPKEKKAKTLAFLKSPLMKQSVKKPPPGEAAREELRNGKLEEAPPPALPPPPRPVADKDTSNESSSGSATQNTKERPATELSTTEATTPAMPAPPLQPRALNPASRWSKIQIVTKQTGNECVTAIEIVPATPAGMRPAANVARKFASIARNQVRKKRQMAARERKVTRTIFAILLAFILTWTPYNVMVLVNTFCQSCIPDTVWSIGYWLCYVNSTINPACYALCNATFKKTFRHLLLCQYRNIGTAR
In words: M4 GTPγS PAM assay. The following applies: membranes of CHO-K1 cells stably expressing human M4; EC20 acetylcholine 40 nM. The format is biochemical. Here is the method: The M4 GTPγS PAM method was used. Membranes were prepared for GTPgS binding assays from CHO-K1 cells stably expressing human M4 receptor. Briefly, cells were grown in 5-layer cell culture flasks. Cells were washed with 50 mL of PBS and then dissociated with 0.05% trypsin. Dissociated cells were then collected by centrifugation at 650×g for 8 minutes at 4° C. Pellets were washed again in PBS by centrifugation and resuspended in 30 mL of 20 mM HEPES, 10 mM EDTA, pH 7.4. After sitting on ice for 30 min, membranes were collected by centrifugation at 50000×g for 15′ at 4° C., resuspended in 30 mL of 20 mM HEPES, 0.1 mM EDTA, pH 7.4 and collected again by centrifugation. Pellets were then washed twice by centrifugation in 30 mL of 20 mM HEPES, pH 7.4, and stored at −80° C. until the day of the assay. On the day of the assay, pellets were thawed on ice and resuspended in 1 mL of 20 mM HEPES, pH 7.4, 10 mM MgCl2, 100 mM NaCl using dounce homogenization. Membrane protein concentration is determined by BCA protein assay (Promega, Madison, WI) according to Promega guidelines.
On the day of the assay, serial dilutions of test PAM compounds were brought up in assay buffer (20 mM HEPES, 10 mM MgCl2, 100 mM NaCl) at 4× final assay concentration. […] of membrane homogenates (containing […] of membrane protein) were prepared in assay buffer supplemented with GDP at 4× final assay concentration (final assay concentration of GDP is 5 μM for M2 and 0.1 μM for M4) and dispensed into 96 well polypropylene, U-bottom Greiner plates. […] of vehicle or test PAM compound at 4× of final assay concentration diluted in the assay buffer were added to membrane and plates are incubated for 10-15 minutes at room temperature with gentle shaking. Then, […] of EC20 acetylcholine in assay buffer at 4× final assay concentration was added to assay plates (EC20 final assay concentrations was 40 nM for human M4).
Plates were then incubated, with shaking, for an additional 10-15 minutes. 25 mL of 0.4 nM ^35S-GTP (Perkin Elmer, Waltham, MA) in assay buffer was added to assay mixtures. The binding reaction is left on the shaker for 1 hour at room temperature. Membranes in assay reactions were then transferred to GF/C filter plates (Unifilter, Perkin Elmer) and washed three times using a FilterMate Harvester (Perkin Elmer) with cold assay buffer containing no GDP. Filter plates were then dried at 40° C. overnight followed by the addition of […] of Beta Plate Scintillation liquid. Plates are top and bottom sealed before being read on TopCount scintillation counter (Perkin Elmer, Waltham, MA).

For another experiment, the system named is Sprague Dawley rats. In words: Amphetamine-evoked hyperlocomotion in rats (open field). It is filed as in vivo, rat. The following applies: adult male Sprague Dawley rats, 0.5 mg/kg amphetamine s.c., distance traveled over 60 min after AMP. How it is done:
Animals: Adult male, Sprague Dawley rats (Envigo, Indianapolis, IN, USA) were housed in a colony maintained at 23° C. with 12 hour light/dark cycles (lights on at 0600 hour). All animals weighed 290-330 g at the beginning of the study and were equally divided into 5 groups (n=8 per group) and received one of the treatment conditions listed below. Animal protocols were approved by an Animal Care and Use Committee.
Behavioral Procedures: Studies were conducted in MedAssociates open field chambers (27.3 cm×27.3 cm×20.3 cm, MedAssociates, St. Albans, VT) in which movement was automatically tracked and recorded by 16 beam arrays. Administration pretreatment of the test article was determined to coincide with Tmax at the time of the amphetamine-evoked session with optimal route of administration. All groups were subcutaneously treated with 0.5 mg/kg amphetamine (AMP). […] Locomotor data (distance traveled) was recorded as 5-minute bins throughout the 90-minute session. […]
Statistical Analysis: Spontaneous locomotion (prior to AMP administration) was calculated as the total distance traveled during the first 30 minutes of the experimental session. AMP-evoked responses were calculated as the total distance traveled during the last 60 minutes of the experimental session which commenced immediately after AMP administration. Locomotor data were analyzed by a one-way ANOVA. […]

Where only a bound is given, the exact number is not on record here.

As to `Cc1cc(=O)n(C)c2c1CN(C(=O)CC1CC1c1ccc(C(F)(F)F)cc1)C2` (single isomer, unassigned) [Compound I-7], the concentration giving a half-maximal response (EC50) on human M4 receptor was < 100 nM. The “Dose Amount of Compound at which rats displayed a reduction in amphetamine-evoked hyperlocomotion activity” value in the experiment on Sprague Dawley rats is 32 mg/kg.
`Cc1c2c(n(C)c(=O)c1F)CN(C(=O)CC1CC1c1ccc(C(F)(F)F)cc1)C2` (stereo not shown) [Compound I-26]: the EC50 on human M4 receptor was < 100 nM. Besides, the “Dose Amount of Compound at which rats displayed a reduction in amphetamine-evoked hyperlocomotion activity” value in the experiment on Sprague Dawley rats is given as 10 mg/kg.

A word on the EC50: it is the concentration that produces a half-maximal response.
